Test results published in ChEMBL document CHEMBL1201862, “PubChem BioAssay data set” (2004).
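Interpolation was linear, between the two tested concentrations surrounding the appropriate level; five concentrations were tested over 48 hours in 96-well plates. Here, GI50 denotes the concentration required for 50% inhibition of growth.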 The source made the active and inactive calls. Rule as the data show it: active = GI50 up to about 1.1 µM and inactive = higher.

Experiments:
Test in all cases: growth of human tumour cells (NCI), 48 h
[1] = system: UACC-257
[2] = system: DU-145
[3] = system: UACC-62
[4] = system: HCT-15
[5] = system: NCI/ADR-RES
[6] = system: OVCAR-4
[7] = system: SK-MEL-2
[8] = system: Hs-578T
[9] = system: OVCAR-3
[10] = system: K562
[11] = system: M14
[12] = system: Malme-3M
[13] = system: BT-549
[14] = system: NCI-H23
[15] = system: SNB-75
[16] = system: NCI-H460
[17] = system: UO-31
[18] = system: PC-3
[19] = system: IGROV-1
[20] = system: CCRF-CEM
[21] = system: HCT-116
[22] = system: RXF 393
[23] = system: EKVX
[24] = system: SNB-19
[25] = system: SR
[26] = system: KM12
[27] = system: HOP-62
[28] = system: MCF7
[29] = system: MDA-MB-231
[30] = system: HL-60
[31] = system: OVCAR-8
[32] = system: U-251
[33] = system: HOP-92
[34] = system: ACHN
[35] = system: 786-0
[36] = system: SK-OV-3
[37] = system: A498
[38] = system: SW-620
[39] = system: SF-295
[40] = system: COLO 205
[41] = system: OVCAR-5
[42] = system: HT-29
[43] = system: SF-268
[44] = system: SF-539
[45] = system: T47D
[46] = system: NCI-H226
[47] = system: A549
[48] = system: MDA-MB-435
[49] = system: CAKI-1
[50] = system: SK-MEL-5
[51] = system: RPMI-8226
[52] = system: SN12C
[53] = system: MOLT-4
[54] = system: MDA-N
[55] = system: SK-MEL-28
[56] = system: NCI-H522
[57] = system: TK-10
[58] = system: LOX IMVI
[59] = system: HCC 2998

Compound: C1=N/CCNCCNCC/N=C/c2ccccc2OCc2cccc(n2)COc2ccccc2/1
- GI50 [1]: 53.7 µM (inactive)
- GI50 [2]: 56.9 µM (inactive)
- GI50 [3]: 79.1 µM (inactive)
- GI50 [4]: 45.1 µM
- GI50 [5]: 23.1 µM (inactive)
- GI50 [6]: 47 µM (inactive)
- GI50 [7]: > 100 µM (inactive)
- GI50 [8]: 55.3 µM (inactive)
- GI50 [9]: 30.1 µM (inactive)
- GI50 [10]: 24.7 µM (inactive)
- GI50 [11]: 28.7 µM (inactive)
- GI50 [12]: 61.8 µM (inactive)
- GI50 [13]: 38.5 µM (inactive)
- GI50 [14]: 86.3 µM (inactive)
- GI50 [15]: 67.9 µM (inactive)
- GI50 [16]: 34.4 µM (inactive)
- GI50 [17]: 72.8 µM (inactive)
- GI50 [18]: 34 µM (inactive)
- GI50 [19]: 52.6 µM (inactive)
- GI50 [20]: 16.2 µM (inactive)
- GI50 [21]: 61 µM (inactive)
- GI50 [22]: 30.3 µM (inactive)
- GI50 [23]: > 100 µM (inactive)
- GI50 [24]: 52.5 µM (inactive)
- GI50 [25]: 19.5 µM (inactive)
- GI50 [26]: 48.5 µM (inactive)
- GI50 [27]: 35.2 µM (inactive)
- GI50 [28]: 21.2 µM (inactive)
- GI50 [29]: 57.9 µM (inactive)
- GI50 [30]: 28 µM (inactive)
- GI50 [31]: 28.6 µM (inactive)
- GI50 [32]: 26.7 µM (inactive)
- GI50 [33]: 71.4 µM (inactive)
- GI50 [34]: 28.6 µM (inactive)
- GI50 [35]: 64.6 µM (inactive)
- GI50 [36]: > 100 µM (inactive)
- GI50 [37]: > 100 µM (inactive)
- GI50 [38]: 36.2 µM (inactive)
- GI50 [39]: 26.4 µM (inactive)
- GI50 [40]: > 100 µM (inactive)
- GI50 [41]: > 100 µM (inactive)
- GI50 [42]: 25.6 µM (inactive)
- GI50 [43]: 47.2 µM (inactive)
- GI50 [44]: 26.1 µM (inactive)
- GI50 [45]: 57.4 µM (inactive)
- GI50 [46]: 66.8 µM (inactive)
- GI50 [47]: > 100 µM (inactive)
- GI50 [48]: 11.3 µM (inactive)
- GI50 [49]: > 100 µM (inactive)
- GI50 [50]: 39.1 µM (inactive)
- GI50 [51]: 28.4 µM (inactive)
- GI50 [52]: 43.8 µM (inactive)
- GI50 [53]: 27.4 µM (inactive)
- GI50 [54]: 15.2 µM (inactive)
- GI50 [55]: > 100 µM (inactive)
- GI50 [56]: 37.8 µM (inactive)

Compound: Cc1cc(C)n(CN(Cn2nc(C)cc2C)c2ccc(N(Cn3nc(C)cc3C)Cn3nc(C)cc3C)cc2)n1
- GI50 [1]: 18.6 µM (inactive)
- GI50 [2]: 25.9 µM (inactive)
- GI50 [3]: 24.2 µM (inactive)
- GI50 [4]: 21.5 µM
- GI50 [5]: 19.1 µM (inactive)
- GI50 [6]: 17.2 µM (inactive)
- GI50 [7]: 23.1 µM (inactive)
- GI50 [8]: 18.2 µM (inactive)
- GI50 [9]: 25.5 µM (inactive)
- GI50 [10]: 18.7 µM (inactive)
- GI50 [11]: 20 µM (inactive)
- GI50 [12]: 22.3 µM (inactive)
- GI50 [13]: 19.2 µM (inactive)
- GI50 [14]: 21.2 µM (inactive)
- GI50 [16]: 24.6 µM (inactive)
- GI50 [17]: 28.4 µM (inactive)
- GI50 [18]: 23.7 µM (inactive)
- GI50 [19]: 31.6 µM (inactive)
- GI50 [20]: 14.4 µM (inactive)
- GI50 [21]: 17.5 µM (inactive)
- GI50 [22]: 20 µM (inactive)
- GI50 [23]: 26.9 µM (inactive)
- GI50 [24]: 24 µM (inactive)
- GI50 [25]: 30.9 µM (inactive)
- GI50 [26]: 24.2 µM (inactive)
- GI50 [27]: 25.8 µM (inactive)
- GI50 [28]: 20.3 µM (inactive)
- GI50 [29]: 45.7 µM (inactive)
- GI50 [30]: 30.5 µM (inactive)
- GI50 [31]: 27.4 µM (inactive)
- GI50 [32]: 27.9 µM (inactive)
- GI50 [33]: 23.9 µM (inactive)
- GI50 [34]: 17.3 µM (inactive)
- GI50 [35]: 19.3 µM (inactive)
- GI50 [36]: 25.9 µM (inactive)
- GI50 [37]: 22.2 µM (inactive)
- GI50 [38]: 16.6 µM (inactive)
- GI50 [39]: 30.8 µM (inactive)
- GI50 [40]: 17.7 µM (inactive)
- GI50 [41]: 24.7 µM (inactive)
- GI50 [42]: 21.9 µM (inactive)
- GI50 [43]: 24.8 µM (inactive)
- GI50 [44]: 18.1 µM (inactive)
- GI50 [45]: 23.8 µM (inactive)
- GI50 [47]: 28 µM (inactive)
- GI50 [48]: 17.7 µM (inactive)
- GI50 [49]: 26.1 µM (inactive)
- GI50 [50]: 16.5 µM (inactive)
- GI50 [51]: 13.4 µM (inactive)
- GI50 [52]: 27.4 µM (inactive)
- GI50 [57]: 29.9 µM (inactive)
- GI50 [53]: 28 µM (inactive)
- GI50 [54]: 18.9 µM (inactive)
- GI50 [55]: 18.7 µM (inactive)
- GI50 [56]: 20.2 µM (inactive)

Compound: C=CCOc1cccc(C2(O)c3ccccc3C3=NCCCN32)c1 (stereo not drawn)
- GI50 [1]: 16 µM (inactive)
- GI50 [2]: 41.2 µM (inactive)
- GI50 [3]: 16.1 µM (inactive)
- GI50 [4]: 20.6 µM
- GI50 [5]: > 35.2 µM (inactive)
- GI50 [6]: 15.5 µM (inactive)
- GI50 [7]: 1.72 µM (inactive)
- GI50 [8]: 28.6 µM (inactive)
- GI50 [9]: 1.25 µM (inactive)
- GI50 [58]: 14.5 µM (inactive)
- GI50 [10]: 4.58 µM (inactive)
- GI50 [11]: 12.4 µM (inactive)
- GI50 [12]: 19.9 µM (inactive)
- GI50 [13]: > 100 µM (inactive)
- GI50 [14]: 10.3 µM (inactive)
- GI50 [15]: 5.06 µM (inactive)
- GI50 [16]: 16.8 µM (inactive)
- GI50 [17]: 13.8 µM (inactive)
- GI50 [18]: 10.3 µM (inactive)
- GI50 [19]: 8.38 µM (inactive)
- GI50 [59]: 14.5 µM (inactive)
- GI50 [20]: 15.4 µM (inactive)
- GI50 [21]: 10.9 µM (inactive)
- GI50 [23]: 3.77 µM (inactive)
- GI50 [24]: 2.45 µM (inactive)
- GI50 [25]: 8.81 µM (inactive)
- GI50 [26]: 7.48 µM (inactive)
- GI50 [27]: 6.84 µM (inactive)
- GI50 [28]: 16.8 µM (inactive)
- GI50 [29]: 57 µM (inactive)
- GI50 [30]: 1.47 µM (inactive)
- GI50 [31]: 14.4 µM (inactive)
- GI50 [32]: 15.6 µM (inactive)
- GI50 [33]: 21.8 µM (inactive)
- GI50 [34]: 3.63 µM (inactive)
- GI50 [35]: 8.49 µM (inactive)
- GI50 [36]: 37.7 µM (inactive)
- GI50 [37]: 21.8 µM (inactive)
- GI50 [38]: 11.9 µM (inactive)
- GI50 [40]: 15 µM (inactive)
- GI50 [41]: 29.7 µM (inactive)
- GI50 [42]: 8.57 µM (inactive)
- GI50 [43]: 54.7 µM (inactive)
- GI50 [44]: 15.8 µM (inactive)
- GI50 [45]: 17.4 µM (inactive)
- GI50 [46]: 3.38 µM (inactive)
- GI50 [47]: 5.6 µM (inactive)
- GI50 [48]: 13 µM (inactive)
- GI50 [49]: 34.7 µM (inactive)
- GI50 [50]: 17 µM (inactive)
- GI50 [51]: 15.2 µM (inactive)
- GI50 [52]: 31.1 µM (inactive)
- GI50 [57]: 33.3 µM (inactive)
- GI50 [53]: 10.2 µM (inactive)
- GI50 [54]: 17.1 µM (inactive)
- GI50 [55]: 5.51 µM (inactive)
- GI50 [56]: 19.5 µM (inactive)
